Test results reported in patent US12012628B2, “Method to elevate the amount of steviol glycosides remained in the recrystallization mother liquor of Stevia extract” (Jiangnan University, priority 2018, dated 2024).
Read-outs that look alike come from different tables or passages of the source.

How the values were obtained:
[1] = tested on: lactase from Kluyveromyces fragilis (ATCC 8554); experiment: Lactase-catalysed hydrolysis of steviol glycosides, HPLC analysis of the reaction mixture; assay type: biochemical
Method: A standard curve is drawn with rebaudioside A (HPLC 99%) as a standard sample, concentrations of rebaudioside A, stevioside and rubusoside are figured out through the standard curve of rebaudioside A by means of an analysis and detection method of steviol glycosides in JECFA2016.
A conversion rate calculation formula of stevioside: α=[(C0−Ct)/C0]×100% (1)
250 g/L glycoside liquid is prepared with deionized water from Stevia sugar (containing 22% of rebaudioside A, 68% of stevioside and 3% of rebaudioside C in percentages by mass). The lactase freeze-dried powder obtained in Example 1 is added to reach an enzyme concentration of 60 U/g stevioside for reaction at 35° C. for 2 h.
250 g/L glycoside liquid is prepared with deionized water from Stevia sugar (containing 22% of rebaudioside A, 68% of stevioside and 3% of rebaudioside C in percentages by mass). The lactase freeze-dried powder obtained in Example 1 is added to reach an enzyme concentration of 150 U/g stevioside for reaction at 35° C. for 24 h.
100 g/L glycoside liquid is prepared from the Stevia mother liquor glycosides (containing 47% of rebaudioside A, 19% of stevioside and 7% of rebaudioside C in percentages by mass). The lactase freeze-dried powder obtained in Example 1 is added to reach an enzyme concentration of 30 U/g stevioside for reaction at 25° C. for 0.5 h. […] It can be seen that a conversion rate of stevioside will drop at a low temperature, a low enzyme concentration and a short reaction time.
A 200 g/L stevioside solution is prepared by dissolving 20 g of stevioside (97%, HPLC) in 100 mL of deionized water into a reactor. The lactase freeze-dried powder obtained in Example 1 is added to reach an enzyme concentration of 90 U/g stevioside for reaction at 35° C. for 2 h.
The lactase freeze-dried powder obtained in Example 1 is added to a mixed glycoside solution (50% of stevioside and 50% of rebaudioside A) with a solid content of 200 g/L to reach an enzyme concentration of 200 U/g stevioside, stirred at 35° C. for 2 h.
A 10 g/L rebaudioside A solution is prepared by dissolving 1 g of rebaudioside A (99%, HPLC) in 100 mL of deionized water and preheated for 30 min at 30° C. The lactase freeze-dried powder obtained in Example 1 is added to reach an enzyme concentration of 100 U/g rebaudioside A for reaction for 24 h at 30° C.

[2] = n-butyl alcohol/water partition coefficients of steviol glycosides; assay type: physicochemical
Excerpt: The n-butyl alcohol/water partition coefficients of several major steviol glycosides in the mother liquor glycosides are shown in Table 1. It can be seen in Table 1 that the polarity difference between rebaudioside A and rebaudioside C and rubusoside is far larger than the polarity difference between rebaudioside A and rebaudioside C and stevioside; and thus, after stevioside is converted into rubusoside, rebaudioside A and rebaudioside C can be separated out of a mixture more easily than before.

[3] = molecular target: T1, lactase (Lactozym Pure 7500 L) (Kluyveromyces lactis, UniProt P00723); experiment: Hydrolysis of stevioside in Stevia sugar by commercial lactase, HPLC; assay type: biochemical; details: Stevia sugar 450 g/L, pH5 buffer; 100 U/g stevioside; 30° C., 2 h
T1 construct: purchased Novozymes Lactozym Pure 7500 L
Method: 450 g/L glycoside liquid is prepared with a pH5 phosphate-potassium phosphate buffer solution (50 mmol/L) from Stevia sugar (containing 22% of rebaudioside A, 68% of stevioside and 3% of rebaudioside C in percentages by mass). The lactase (Lactozym Pure 7500 L, purchased from Novozymes company in China) is added to reach an enzyme concentration of 100 U/g stevioside for reaction at 30° C. for 2 h.

[4] = molecular target: T2, lactase (Lactozym 3000 L HP-G) from Kluyveromyces lactis (Kluyveromyces lactis, UniProt P00723); experiment: as above; assay type: biochemical; details: Stevia sugar 450 g/L, pH5 buffer; 100 U/g stevioside; 30° C., 2 h
T2 construct: purchased Novozymes Lactozym 3000 L HP-G
Method: 450 g/L glycoside liquid is prepared with a pH5 phosphate-potassium phosphate buffer solution (50 mmol/L) from Stevia sugar (containing 22% of rebaudioside A, 68% of stevioside and 3% of rebaudioside C in percentages by mass). The lactase (trade name: Lactozym 3000 L HP-G, purchased from Novozymes company in China) from Kluyveromyces lactis is added to reach an enzyme concentration of 100 U/g stevioside for reaction at 30° C. for 2 h.

[5] = molecular target: T3, lactase (Maxilact LG 2000) from Kluyveromyces lactis (Kluyveromyces lactis, UniProt P00723); experiment: as above; assay type: biochemical; details: Stevia sugar 450 g/L, pH5 buffer, 100 U/g stevioside, 30° C.
T3 construct: purchased Royal DSM Maxilact LG 2000
Method: 450 g/L glycoside liquid is prepared with a pH5 phosphate-potassium phosphate buffer solution (50 mmol/L) from Stevia sugar (containing 22% of rebaudioside A, 68% of stevioside and 3% of rebaudioside C in percentages by mass). […]

[6] = molecular target: lactase from Aspergillus niger (ATCC 9029) (Aspergillus niger, UniProt P29853); experiment: Hydrolysis of stevioside in Stevia sugar by lactase, HPLC; assay type: biochemical; details: Stevia sugar 450 g/L, pH5 buffer; 100 U/g stevioside; 30° C., 2 h
Method: 450 g/L glycoside liquid is prepared with a pH5 phosphate-potassium phosphate buffer solution (50 mmol/L) from Stevia sugar (containing 22% of rebaudioside A, 68% of stevioside and 3% of rebaudioside C in percentages by mass). The lactase from Aspergillus niger (ATCC® 9029™) is added to reach an enzyme concentration of 100 U/g stevioside for reaction at 30° C. for 2 h.

T3 sequence (P00723 whole entry): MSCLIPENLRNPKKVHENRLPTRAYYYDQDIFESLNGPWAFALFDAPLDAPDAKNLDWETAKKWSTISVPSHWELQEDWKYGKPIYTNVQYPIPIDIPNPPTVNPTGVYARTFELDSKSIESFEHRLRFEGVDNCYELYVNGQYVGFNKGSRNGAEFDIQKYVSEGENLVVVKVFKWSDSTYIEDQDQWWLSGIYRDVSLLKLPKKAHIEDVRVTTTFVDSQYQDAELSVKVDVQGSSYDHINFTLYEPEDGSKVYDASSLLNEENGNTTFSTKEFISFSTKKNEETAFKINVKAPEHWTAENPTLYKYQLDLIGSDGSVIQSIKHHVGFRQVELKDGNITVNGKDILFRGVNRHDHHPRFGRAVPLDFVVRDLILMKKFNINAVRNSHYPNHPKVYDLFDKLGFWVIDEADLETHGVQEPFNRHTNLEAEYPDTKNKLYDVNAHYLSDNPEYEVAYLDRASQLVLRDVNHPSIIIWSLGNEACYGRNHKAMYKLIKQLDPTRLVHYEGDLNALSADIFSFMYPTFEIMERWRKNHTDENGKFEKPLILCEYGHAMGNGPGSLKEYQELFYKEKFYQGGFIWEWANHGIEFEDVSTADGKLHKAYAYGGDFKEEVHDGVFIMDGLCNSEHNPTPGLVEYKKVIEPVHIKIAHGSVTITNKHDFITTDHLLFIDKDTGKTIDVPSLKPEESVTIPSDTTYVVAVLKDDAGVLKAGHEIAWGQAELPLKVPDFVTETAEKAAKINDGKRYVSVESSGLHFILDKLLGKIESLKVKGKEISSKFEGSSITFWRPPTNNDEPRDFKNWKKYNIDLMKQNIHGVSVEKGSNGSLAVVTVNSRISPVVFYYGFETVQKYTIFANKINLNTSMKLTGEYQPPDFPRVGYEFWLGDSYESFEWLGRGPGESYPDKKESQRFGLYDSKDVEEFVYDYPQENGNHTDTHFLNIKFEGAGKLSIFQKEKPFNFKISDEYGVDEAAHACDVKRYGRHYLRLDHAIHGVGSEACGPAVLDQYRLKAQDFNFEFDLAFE
Chain of lactase from Aspergillus niger (ATCC 9029) (P29853 20-1006): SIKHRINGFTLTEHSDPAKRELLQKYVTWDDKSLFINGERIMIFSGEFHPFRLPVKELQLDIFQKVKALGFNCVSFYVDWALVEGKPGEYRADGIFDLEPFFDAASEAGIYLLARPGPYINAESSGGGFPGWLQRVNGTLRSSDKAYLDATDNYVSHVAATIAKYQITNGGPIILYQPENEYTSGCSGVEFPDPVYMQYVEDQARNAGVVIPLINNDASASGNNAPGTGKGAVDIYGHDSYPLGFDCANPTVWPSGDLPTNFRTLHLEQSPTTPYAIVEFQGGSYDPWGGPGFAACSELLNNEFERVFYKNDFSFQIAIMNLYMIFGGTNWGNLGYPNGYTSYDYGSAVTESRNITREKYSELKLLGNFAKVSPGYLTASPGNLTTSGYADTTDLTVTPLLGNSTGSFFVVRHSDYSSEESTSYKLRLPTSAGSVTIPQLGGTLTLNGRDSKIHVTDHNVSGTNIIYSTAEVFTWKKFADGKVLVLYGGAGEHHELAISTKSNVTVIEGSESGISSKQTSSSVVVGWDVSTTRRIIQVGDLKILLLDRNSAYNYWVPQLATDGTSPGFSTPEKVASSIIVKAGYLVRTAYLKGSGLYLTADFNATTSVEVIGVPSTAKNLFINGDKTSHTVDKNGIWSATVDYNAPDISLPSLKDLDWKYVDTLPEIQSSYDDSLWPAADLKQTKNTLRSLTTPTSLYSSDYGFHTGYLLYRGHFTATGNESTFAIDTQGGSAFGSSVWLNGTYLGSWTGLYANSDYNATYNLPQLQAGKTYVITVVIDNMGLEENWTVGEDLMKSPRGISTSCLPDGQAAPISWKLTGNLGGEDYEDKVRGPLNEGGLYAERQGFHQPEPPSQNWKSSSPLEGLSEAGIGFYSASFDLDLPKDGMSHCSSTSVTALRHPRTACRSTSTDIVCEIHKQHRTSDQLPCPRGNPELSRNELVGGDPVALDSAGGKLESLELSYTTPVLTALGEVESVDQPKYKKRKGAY
T2 sequence (P00723 whole entry): as the sequence (P00723 whole entry) above
T1 sequence (P00723 whole entry): as above

## C=C1C[C@@]23CC[C@H]4[C@@](C)(CCC[C@@]4(C)C(=O)O[C@@H]4O[C@H](CO)[C@@H](O)[C@H](O)[C@H]4O)[C@@H]2CC[C@]1(O[C@@H]1O[C@H](CO)[C@@H](O)[C@H](O[C@@H]2O[C@H](CO)[C@@H](O)[C@H](O)[C@H]2O)[C@H]1O[C@@H]1O[C@H](CO)[C@@H](O)[C@H](O)[C@H]1O)C3 [rebaudioside A]
[1]; 10 g/L rebaudioside A, 100 U/g rebaudioside A, 30° C., 24 h
  reaction of rebaudioside A with lactase: did not react
[1]; 50 wt % rebaudioside A + 50 wt % stevioside, 200 U/g stevioside, 2 h (FIG. 4A)
  reaction of rebaudioside A with lactase in mixture with stevioside: does not react
[2]
  n-butyl alcohol/water partition coefficients: 0.09

## C=C1C[C@@]23CC[C@H]4[C@@](C)(CCC[C@@]4(C)C(=O)O[C@@H]4O[C@H](CO)[C@@H](O)[C@H](O)[C@H]4O)[C@@H]2CC[C@]1(O[C@@H]1O[C@H](CO)[C@@H](O)[C@H](O)[C@H]1O)C3 [rubusoside]
[2]
  n-butyl alcohol/water partition coefficients: 3.5

## C=C1C[C@@]23CC[C@H]4[C@@](C)(CCC[C@@]4(C)C(=O)O[C@@H]4O[C@H](CO)[C@@H](O)[C@H](O)[C@H]4O)[C@@H]2CC[C@]1(O[C@@H]1O[C@H](CO)[C@@H](O)[C@H](O)[C@H]1O[C@@H]1O[C@H](CO)[C@@H](O)[C@H](O)[C@H]1O)C3 [stevioside]
[3]
  conversion of stevioside: not converted
[4]
  conversion of stevioside: not converted
[1]; 50% stevioside + 50% rebaudioside A, 200 g/L, 200 U/g stevioside, 35° C., 2 h
  conversion rate of stevioside: 99.5%
[1]; 200 g/L stevioside (97%) solution, 90 U/g stevioside, 35° C., 2 h
  conversion rate of stevioside: 98.9%
[1]; Stevia mother liquor glycosides 100 g/L (19% stevioside), 30 U/g stevioside, 25° C., 0.5 h
  conversion rate of stevioside: 72.7%
[1]; Stevia sugar 250 g/L (68% stevioside), 60 U/g stevioside, 35° C., 2 h
  conversion rate of stevioside: 98.3%
[1]; Stevia sugar 250 g/L (68% stevioside), 150 U/g stevioside, 35° C., 24 h
  conversion rate of stevioside: 99.5%
[5]; 2 h
  conversion of stevioside: not converted
[5]; 20 h
  product of the reaction of stevioside: steviolbioside is produced
[2]; n-butyl alcohol/water
  n-butyl alcohol/water partition coefficients: 0.36
[6]
  content of stevioside in the reaction mixture: no change

## rebaudioside C
[2]
  n-butyl alcohol/water partition coefficients: 0.2
